According to PMC12505254, “PROTAC Enabling Formulation In Vivo: Implications of the Polymeric Carrier Eudragit E PO” (Molecular Pharmaceutics, 2025):
Converted amounts (≈) assume the structure as drawn. Like-named read-outs stand apart in the source and are kept apart here.

How the values were obtained:
[1] = Pharmacokinetic study in mice (K–V i.v./p.o., SDD-V p.o.); type: in vivo, mice (female CD-1); conditions: 0.5 mg/kg in K–V
Method: To evaluate the in vivo performance of the MS4078 SDD formulation, pharmacokinetic studies in mice were conducted and compared to the corresponding Kolliphor solution vehicle. The API in Kolliphor vehicle (see Section ) and the SDD formulation were given in a single-dose study to female CD-1 mice (Charles River Laboratories, Sulzfeld, Germany). The animals were kept in group housing in conventional cages with elevated grids. Food and water were offered ad libitum to the animals.
The study was carried out at EMD Serono (Billerica, MA, USA). A total of 21 mice (female, CD-1) were divided into groups of 12 and 9 animals. The solution vehicle was prepared according to Section . Doses of 0.5 mg/kg of MS4078 were administered intravenously (dose volume: 5 mL/kg) to 12 animals and blood samples (retro-orbital) were sequentially drawn from 3 animals per sampling point at 0.1, 0.25, 0.5, 1, 2, 6, and 24 h after dosing. 10 mg/kg were administered orally (dose volume: 10 mL/kg) to the second group of 9 animals. After dosing, blood samples from 3 animals per sampling point were sequentially drawn at the time points described above, except for the 0.1 h sampling point. The blood cells were dissevered by centrifugation (2000 g, 5 min). Plasma samples were extracted using a protein precipitation reagent (ACN, 4:1 (V/V)). After the addition of 50 μL methanol, the concentration was determined by LC-MS/MS (generic method, based on tuning data).
Mouse PK studies of the enabling formulation were conducted at Nuvisan GmbH (Grafing, Germany). To determine oral bioavailability of MS4078/SDD, the SDD formulation (dose: 10 mg/kg MS4078) was weighed in, dispersed in a citrate vehicle (see Section ), and administered orally (gavage, dose volume: 10 mL/kg) to three female mice (Crl:CD1(ICR)). […] 50 μL of supernatant were diluted 1:1 with a solution of 0.1% formic acid in water and the concentration of MS4078 was determined by UHPLC-MS/MS (generic method, based on tuning data).
Plasma concentrations were determined for each time point sampled. […]

[2] = Solubility of MS4078 in buffer and cFaSSIF types (24 h, 37°C); type: physicochemical; conditions: thermodynamic from solid
Method: The solubility of MS4078 was evaluated by weighing an excess amount of the compound into vials and adding a prewarmed buffer or cFaSSIF types (cFaSSIF1x , cFaSSIF5 x , and cFaSSIF10x ). The suspension was stirred at 37°C for 24 h at 300 rpm. Samples were withdrawn from the suspension, and centrifuged at 15000 rpm (Mikro 200 R, Hettich, Tuttlingen, Germany) and the supernatant was diluted 1:1 with ACN. The dissolved concentration was determined by ultraperformance liquid chromatography (UHPLC, see Section ). The experiments were carried out in triplicate.
UHPLC analysis of MS4078 is described in detail in a previous publication of our group. In brief, the samples were analyzed at 271 nm using a Waters Acquity H-Class series UHPLC system (Waters Corporation, Eschborn, Germany). A gradient was applied using ACN and water with 0.1% (V/V) trifluoracetic acid as mobile phases. Separation was realized by a Waters Acquity BEH C8 column (2.1 × 50 mm, 1.7 μm).

[3] = Two-stage precipitation assay simulating the conditions in mice; type: physicochemical
Method: To determine the dissolution and precipitation of both the Kolliphor solution vehicle and the SDD dispersion in citrate vehicle upon the GI passage in vitro, a two-stage precipitation assay was conducted which had been developed internally. Therefore, the Kolliphor vehicle containing MS4078 and the dispersion of the SDD in citrate vehicle were prepared according to the descriptions in Sections and , respectively.
According to McConnell et al., the volume of gastric fluid in mice is about 175 μL. […]
The setup of the two-stage precipitation experiments and an overview of the samples are depicted in Figure and Table . […] The concentration of MS4078 was determined by sampling and UHPLC analysis or the turbidity of the samples was analyzed in-line using the Cary3500 (Agilent, Santa Clara, CA, USA) (Figure D). […] As a first step, the optical density (OD) of the cFaSSIF types, Blank-DM (citrate vehicle/SGF pH 4 mixture without polymer or API) and P-DM (a solution of E PO in citrate vehicle/SGF pH 4 mixture) were measured in a range of 200–800 nm (Figure S2). […]
1 Schematic setup of the two-stage precipitation experiments. […] All samples were centrifuged (15,000 rpm (Mikro 200 R)) for 60 s, and the supernatant was diluted with ACN and analyzed via UHPLC (see Section ). […]

- in vivo total clearance as % mouse liver blood flow [1]: 20 % mouse liver blood flow
- clearance ([1]; female, CD-1, mouse, plasma, iv, read-out: in vivo total clearance (converted)): 1.22 L/h/kg
- Vd ([1]; female, CD-1, mouse, plasma, iv, read-out: volume of distribution (Vss)): 1.05 L/kg
- solubility at 24 h ([2]; aqueous buffer, citrate-phosphate buffer pH 5, 37°C, read-out: Solubility): ~0.002 mg/mL (≈ 2.19 µM)
- solubility at 24 h ([2]; fassgf or other biorelevant, cFaSSIF5x pH 5, 37°C, read-out: Solubility in 5x concentrated cFaSSIF): ~0.22 mg/mL (≈ 241 µM)
- solubility at 24 h ([2]; fassif, cFaSSIF1x pH 5, 37°C, read-out: Solubility S(cFaSSIF1x)): 0.078 mg/mL (≈ 85.3 µM)
- Dissolved MS4078 concentration in acceptor compartment maintained until end of experiment ([3]; SDD-DM transferred to cFaSSIF10x, from the 20 min sampling point): 30 µg/mL
- Dissolved MS4078 concentration in acceptor compartment after phase separation (plateau) ([3]; SDD-DM transferred to cFaSSIF20x): ~220 µg/mL
SMILES: Cc1cc(Nc2ncc(Cl)c(Nc3ccccc3S(=O)(=O)C(C)C)n2)c(OC(C)C)cc1C1CCN(CC(=O)NCCNc2cccc3c2C(=O)N(C2CCC(=O)NC2=O)C3=O)CC1 (centres unmarked) [MS4078]
